Where a name gives a salt, the structure may show the parent alone.
These compounds were tested against T1, KRAS-G12D and SOS1 (Homo sapiens, UniProt P01116, G12D) (assay: Inhibition of KRAS-G12D/SOS1 binding (Cisbio binding kit, 665/615 ratio), Effect Embodiment A). Conditions: read-out: GTP-KRAS-G12D:SOS1 IC50.
T1 construct: purchased
Experimental: Similarly, the first dilution point of the compound to be tested was its storage solution, and the solution was 3-fold diluted, with 11+0 points of dilution. Echo was used to transfer 0.2 μL gradient diluted solution of the compounds into a 384-well plate, with 2 duplicated wells for each compound, and the final concentration of DMSO was 1%. The solution was centrifuged for 1 min at 1000 rpm/min.
IC50 of the compounds was fitted by Graphpad Prism 8 nonlinear regression equation: […]
The IC50 (half inhibitory concentration) of the compound was obtained by using the following nonlinear fitting formula: […]

T1 sequence (P01116 1-188 isoform P01116-2 G12D): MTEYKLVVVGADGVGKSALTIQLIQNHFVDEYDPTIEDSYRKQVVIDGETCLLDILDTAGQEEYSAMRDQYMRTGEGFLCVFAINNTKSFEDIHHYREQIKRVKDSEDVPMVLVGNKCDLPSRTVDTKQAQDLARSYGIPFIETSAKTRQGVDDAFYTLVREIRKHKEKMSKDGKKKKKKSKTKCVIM

SMILES | IC50 [nM]
CN(C)CCCn1c(=O)nc(N2CC3CCC(C2)N3)c2cc(Cl)c(-c3cc(O)cc4ccccc34)c(F)c21 (single isomer, unassigned) [Compound 74a, 4-((1R,5S)-3,8-diazabicyclo[3.2.1]octan-3-yl)-6-chloro-1-(3-(dimethylamino)propyl)-8-fluoro-7-((S or R)-3-hydroxynaphthalen-1-yl)quinazolin-2(1H)-one] | 100000
CN(C)CCCn1c(=O)nc(N2CC3CCC(C2)N3)c2cc(Cl)c(-c3cc(O)cc4ccccc34)c(F)c21 (single isomer, unassigned) [Compound 74b, 4-((1R,5S)-3,8-diazabicyclo[3.2.1]octan-3-yl)-6-chloro-1-(3-(dimethylamino)propyl)-8-fluoro-7-((R or S)-3-hydroxynaphthalen-1-yl)quinazolin-2(1H)-one] | > 200000
CN(C)C1CN(c2nc(NCC(=N)N)c3cc(Cl)c(-c4cc(O)cc5ccccc45)c(F)c3n2)C1 (single isomer, unassigned) [Compound 76, (S or R)-2-((6-chloro-2-(3-(dimethylamino)azetidin-1-yl)-8-fluoro-7-(3-hydroxynaphthalen-1-yl)quinazolin-4-yl)amino)acetimidamide diformate] | 8960
CC(=O)NCCN(C)c1nc(N2CC(N(C)C)C2)nc2c(F)c(-c3cc(O)cc4ccccc34)c(Cl)cc12 (single isomer, unassigned) [Compound 84, (S or R)—N-(2-((6-chloro-2-(3-(dimethylamino)azetidin-1-yl)-8-fluoro-7-(3-hydroxynaphthalen-1-yl)quinazolin-4-yl)(methyl)amino)ethyl)acetamide] | 3050
CN(C)C1CN(c2nc(N3CC4CCC(C3)N4C(=N)N)c3cc(Cl)c(-c4cc(O)cc5ccccc45)c(F)c3n2)C1 (single isomer, unassigned) [Compound 85, (1R,5S)-3-((S or R)-6-chloro-2-(3-(dimethylamino)azetidin-1-yl)-8-fluoro-7-(3-hydroxynaphthalen-1-yl)quinazolin-4-yl)-3,8-diazabicyclo[3.2.1]octane-8-carboximidamide diformate] | 4790
CN(C)C1CN(c2nc(N3CC4CCC(C3)N4C)c3cc(Cl)c(-c4cc(O)cc5ccccc45)c(F)c3n2)C1 (single isomer, unassigned) [Compound 86, 4-((S or R)-6-chloro-2-(3-(dimethylamino)azetidin-1-yl)-8-fluoro-4-((1R,5S)-8-methyl)-3,8-diazabicyclo[3.2.1]octan-3-yl)quinazolin-7-yl)naphthalen-2-ol] | 3570
CC(=N)N1C2CCC1CN(c1nc(N3CC(N(C)C)C3)nc3c(F)c(-c4cc(O)cc5ccccc45)c(Cl)cc13)C2 (single isomer, unassigned) [Compound 87, 4-((S or R)-6-chloro-2-(3-(dimethylamino)azetidin-1-yl)-8-fluoro-4-((1R,5S)-8-(1-iminoethyl)-3,8-diazabicyclo[3.2.1]octan-3-yl)quinazolin-7-yl)naphthalen-2-ol trifluoroacetate] | 23300
CN1CCC[C@H]1COc1nc(N2CC3CCC(C2)N3)c2cc(Cl)c(-c3cc(O)c(F)c4ccccc34)c(F)c2n1 (single isomer, unassigned) [Compound 89b, (R or S)-4-(4-((1R,5S)-3,8-diazabicyclo[3.2.1]octan-3-yl)-6-chloro-8-fluoro-2-(S)-1-methylpyrrolidin-2-yl)methoxy)quinazolin-7-yl)-1-fluoronaphthalen-2-ol hydrochloride] | 5340
Cc1ccc2[nH]ncc2c1-c1c(Cl)cc2c(N3CC4CCC(C3)N4)nc(OC[C@@H]3CCCN3C)nc2c1F (single isomer, unassigned) [Compound 90a, 4-((1R,5S)-3,8-diazabicyclo[3.2.1]octan-3-yl)-6-chloro-8-fluoro-7-((R or S)-5-methyl-1H-indazol-4-yl)-2-((S)-1-methylpyrrolidin-2-yl)methoxy)quinazoline hydrochloride] | 263
C[C@H]1CCCN1CCCOc1nc(N2CC3CCC(C2)N3)c2cc(Cl)c(-c3cc(O)cc4ccccc34)c(F)c2n1 (single isomer, unassigned) [Compound 108b, 4-((S or R)-4-((1R,5S)-3,8-diazabicyclo[3.2.1]octan-3-yl)-6-chloro-8-fluoro-2-(3-((S)-2-methylpyrrolidin-1-yl)propoxy)quinazolin-7-yl)naphthalen-2-ol dihydrochloride] | 108
CN1CCC1CCOc1nc(N2CC3CCC(C2)N3)c2cc(Cl)c(-c3cc(O)cc4ccccc34)c(F)c2n1 (single isomer, unassigned) [Compound 112b, 4-((S or R)-4-((1R,5S)-3,8-diazabicyclo[3.2.1]octan-3-yl)-6-chloro-8-fluoro-2-(2-((R or S)-1-methylazetidin-2-yl)ethoxy)quinazolin-7-yl)naphthalen-2-ol carboxylate] | 120
Oc1cc(-c2c(Cl)cc3c(N4CC5CCC(C4)N5)nc(OCCN4CCOCC4)nc3c2F)c2ccccc2c1 (single isomer, unassigned) [Compound 121, 4-((S or R)-4-((1R,5S)-3,8-diazabicyclo[3.2.1]octan-3-yl)-6-chloro-8-fluoro-2-(2-(morpholinylethoxy)quinazolin-7-yl)naphthalen-2-oldihydrochloride] | 147
CN1CCOC[C@H]1COc1nc(N2CC3CCC(C2)N3)c2cc(Cl)c(-c3cc(O)cc4ccccc34)c(F)c2n1 (single isomer, unassigned) [Compound 122, 4-((S or R)-4-((1R,5S)-3,8-diazabicyclo[3.2.1]octan-3-yl)-6-chloro-8-fluoro-2-((S)-4-methylmorpholin-3-yl)methoxy)quinazolin-7-yl)naphthalen-2-ol dihydrochloride] | 219
CC(C)(CCOc1nc(N2CC3CCC(C2)N3)c2cc(Cl)c(-c3cc(O)cc4ccccc34)c(F)c2n1)N1CCCC1 (single isomer, unassigned) [Compound 123, 4-((S or R)-4-((1R,5S)-3,8-diazabicyclo[3.2.1]octan-3-yl)-6-chloro-8-fluoro-2-(3-methyl-3-(pyrrolidin-1-yl)butoxy)quinazolin-7-yl)naphthalen-2-ol dihydrochloride] | 106
CCCN(C)CCOc1nc(N2C[C@H]3CC[C@@H](C2)N3)c2cc(Cl)c(-c3cc(O)cc4ccccc34)c(F)c2n1 (single isomer, unassigned) [Compound 126, (S or R)-4-(4-((1R,5S)-3,8-diazabicyclo[3.2.1]octan-3-yl)-6-chloro-8-fluoro-2-(2-(methyl(propyl)amino)ethoxy)quinazolin-7-yl)naphthalen-2-ol dihydrochloride] | 134
CN(C)C1CN(c2nc(C3(C(N)=O)CN(C(=N)N)C3)c3cc(Cl)c(-c4cc(O)cc5ccccc45)c(F)c3n2)C1 (single isomer, unassigned) [Compound 145, (R or S)-1-Carbamimidoyl-3-(6-chloro-2-(3-(dimethylamino)azetidin-1-yl)-8-fluoro-7-(3-hydroxynaphthalen-1-yl)quinazolin-4-yl)azetidin-3-carboxamide ditrifluoroacetate] | 5940
CN(C)C1CN(c2nc(C3CN(C(=N)N)C3)c3cc(Cl)c(-c4cc(O)cc5ccccc45)c(F)c3n2)C1 (single isomer, unassigned) [Compound 146] | 6930
CN(C)CCCSc1nc(N2C[C@H]3CC[C@@H](C2)N3)c2cc(Cl)c(-c3cc(O)cc4ccccc34)c(F)c2n1 (single isomer, unassigned) [Compound 147, (S or R) 4-(4-((1R,5S)-3,8-diazabicyclo[3.2.1]octan-3-yl)-6-chloro-2-((3-(dimethylamino)propyl)thio)-8-fluoroquinazolin-7-yl)naphthalen-2-ol dihydrochloride] | 605
CN1CCC[C@H]1COc1nc(N2C3CCC2C2CCC3N2)c2cc(Cl)c(-c3cc(O)cc4ccccc34)c(F)c2n1 (single isomer, unassigned) [Compound 152a, 4-((S or R)-6-chloro-8-fluoro-2-((S)-1-methylpyrrolidin-2-yl)methoxy)-4-((1R,2R,5S,6S)-9,10-diazatricyclo[4.2.1.1^2,5]decan-9-yl)quinazolin-7-yl)naphthalen-2-ol dihydrochloride] | 1050
CN1CCC[C@H]1COc1nc(N2CCN[C@@H](CC#N)C2)c2cc(Cl)c(-c3cc(O)cc4ccccc34)c(F)c2n1 (single isomer, unassigned) [Compound 153a, 2-((S)-4-((S or R)-6-chloro-8-fluoro-7-(3-hydroxynaphthalen-1-yl)-2-((S)-1-methylpyrrolidin-2-yl)methoxy)quinazolin-4-yl)piperazin-2-yl)acetonitrile] | 965
CN(C)CCCCc1nc(N2CC3CCC(C2)N3)c2cc(Cl)c(-c3cc(O)cc4ccccc34)c(F)c2n1 (single isomer, unassigned) [Compound 154a, 4-((S or R)-4-((1R,5S)-3,8-diazabicyclo[3.2.1]octan-3-yl)-6-chloro-2-(4-(dimethylamino)butyl)-8-fluoroquinazolin-7-yl)naphthalen-2-ol dihydrochloride] | 204
CN1CCC[C@H]1COc1nc(N2CC3CCC(C2)N3C(=O)CN)c2cc(Cl)c(-c3cc(O)cc4ccccc34)c(F)c2n1 (single isomer, unassigned) [Compound 156, 2-Amino-1-((1R,5S)-3-((S or R)-6-chloro-8-fluoro-7-(3-hydroxynaphthalen-1-yl)-2-((S)-1-methylpyrrolidin-2-yl)methoxy)quinazin-4-yl)-3,8-diazacyclo[3.2.1]octan-8-yl)ethan-1-one dihydrochloride] | 621

From patent publication US20230365563A1, “QUINAZOLINE COMPOUND AND APPLICATION THEREOF” (SHANGHAI PHARMACEUTICALS HOLDING CO., LTD., priority 2020, published 2023)
